Test results from patent publication US20110160251A1, “ANIMAL ECTOPARASITE CONTROL COMPOSITION” (priority 2009, published 2011).

System: Haemaphysalis longicornis
Assay: Test Example 6: filter paper contact test, fatality of ticks, compound in single solvent
Type: in vivo
Details: 63.6 mg/ml, 0.2 ml on filter paper (treatment amount 2000 mg/m^2), after 24 hours at 25° C.; for Fatality rate of tick (%) Example 2 diisobutyl adipate: solvent diisobutyl adipate; for Fatality rate of tick (%) Example 1 diisopropyl adipate: solvent diisopropyl adipate; for Fatality rate of tick (%) Comparative Example 1 Propylene Carbonate: solvent propylene carbonate
Description: The halogen-containing organosulfur compound (33) or (35) was dissolved in a solvent such that the concentration of the halogen-containing organosulfur compound was 63.6 mg/ml to a test solution. A filter paper was put on the bottom face of a glass petri dish with 7 cm diameter and treated with 0.2 ml of the test solution (treatment amount: 2000 mg/m^2). On the filter paper, 10 Haemaphysalis longicornis were released and allowed to contact the filter paper. The glass petri dish was allowd to stand still at 25° C. After 24 hours, fatalities of the insects were observed.

SMILES | Fatality rate of tick (%) Example 2 diisobutyl adipate [%] | Fatality rate of tick (%) Example 1 diisopropyl adipate [%] | Fatality rate of tick (%) Comparative Example 1 Propylene Carbonate [%]
CON=C1CCC(C(C#N)S(=O)(=O)CCC(F)(F)F)CC1 (stereo not drawn) [Compound (33), 2-[4-(methoxyimino)cyclohexyl]-2-(3,3,3-trifluoropropylsulfonyl)acetonitrile] | 85 | 100 | 25
CCON=C1CCC(C(C#N)S(=O)(=O)CCC(F)(F)F)CC1 (stereo not drawn) [Compound (35), 2-[4-(ethoxyimino)cyclohexyl]-2-(3,3,3-trifluoropropylsufonyl)acetonitrile] | 80 | 100 | 20
